# Assay results reported in patent US20240336627A1, “NOVEL COMPOUNDS FOR THE DIAGNOSIS OF TDP-43 PROTEINOPATHIES” (AC IMMUNE SA, priority 2021, published 2024).
# “Also recorded” adds a separate entry of the source. Like-named read-outs stand apart in the source and are kept apart here. Marks after values point to notes of the source that are not given here.
# Columns and labels:
# [1] = target: T1, Human brain derived TDP-43 aggregates (Homo sapiens, UniProt Q13148); assay: Micro-radiobinding competition assay on human FTD sarkosyl-insoluble brain extracts; assay type: binding; settings: for Human brain derived TDP-43 aggregates Mean % competition at 250 nM: 250 nM test compound; for Human brain derived TDP-43 aggregates Mean % competition at 2 μM: 2 μM test compound; for Ki: 0.24 nM to 2 μM test compound
# T1 construct: A sample of brain tissue (frontal or temporal cortex) was homogenized; from tissue; host or cells: sarkosyl-insoluble fraction of human FTD brain (frontal or temporal cortex)
# T1 sequence (Q13148 whole entry): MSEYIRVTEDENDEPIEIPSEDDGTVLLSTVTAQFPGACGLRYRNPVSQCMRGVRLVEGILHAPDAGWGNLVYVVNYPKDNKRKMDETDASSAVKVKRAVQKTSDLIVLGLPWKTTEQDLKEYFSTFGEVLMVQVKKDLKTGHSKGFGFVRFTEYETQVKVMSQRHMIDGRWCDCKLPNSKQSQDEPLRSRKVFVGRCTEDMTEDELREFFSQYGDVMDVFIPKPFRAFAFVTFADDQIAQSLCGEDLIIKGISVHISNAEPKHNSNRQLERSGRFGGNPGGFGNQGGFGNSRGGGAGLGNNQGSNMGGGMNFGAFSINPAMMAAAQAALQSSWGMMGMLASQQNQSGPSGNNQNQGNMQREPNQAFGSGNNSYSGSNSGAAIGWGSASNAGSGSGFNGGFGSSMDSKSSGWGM
# Procedure: Human brain extracts were prepared as described in Laferriere et al., 2019, Nature Neurosc. A sample of brain tissue (frontal or temporal cortex) was homogenized at 1:4 (w/v) ratio in the homogenization-solubilization (HS) buffer at 4° C. using tissue homogenizer (Precellys) with CKmix homogenization tubes. The following sequence was used for homogenization: 3 cycles of 30 seconds at 5000 rpm (with 15 seconds pause between each cycle). Homogenized samples were aliquoted and stored at −80° C. in 1.5 mL low protein binding tubes.
# Brain homogenates were thawed on ice and resuspended in HS buffer to obtain a final concentration of 2% sarkosyl, 1 unit/μL Benzonase and 1 mM MgCl2. The samples were then incubated at 37° C. under constant shaking at 600 rpm on a thermomixer for 45 minutes (min). The supernatants were collected in a new tube (sarkosyl-soluble fraction, S1). The pellet was resuspended in 1000 μL of myelin floatation buffer and centrifuged at 20,000 g for 60 min at 4° C. The supernatant was carefully removed to remove all the floating lipids. This step was repeated if all the lipids could not be removed in a single step. The pellet was subsequently washed with Phosphate-Buffered Saline (PBS) and centrifuged for 30 min at 20,000 g at 4° C. The final pellet was resuspended in 200 μL PBS and stored at −80° C. (sarkosyl-insoluble fraction). The samples were analyzed by immunoblotting in denaturing conditions.
# Human FTD sarkosyl-insoluble brain extracts were spotted onto microarray slides. The slides were incubated with [^3H]-Compound 52 or [^3H]-Compound 16 ligands at 75 nM or 40 nM, respectively, and the example compounds (non-radiolabelled) at 2 μM and 250 nM. In some cases, the non-radiolabelled example compounds were further assessed for a range of different concentrations, varying from 0.24 nM to 2 μM for determination of the inhibition constant (Ki). After incubation, slides were washed and scanned by a real-time autoradiography system (BeaQuant, ai4R). Quantification of the signal was performed by using the Beamage image analysis software (ai4R). Non-specific signal was determined with an excess of non-radiolabelled compound 52 or compound 16 (2 μM) and specific binding was calculated by subtracting the non-specific signal from the total signal. Competition was calculated as percent, where 0% was defined as the specific binding in the presence of vehicle and 100% as the values obtained in the presence of excess of the non-radiolabelled compound 52 or compound 16. Ki values were calculated in GraphPad Prism7 by applying a nonlinear regression curve fit using a one site, specific binding model. Measurements were performed with at least two technical replicates in the two-concentration competition experiment and with one technical replicate in the experiments including a range of concentrations. For compounds tested in more than one experiment, the mean of the replicates or Ki values in independent experiments is reported.
# [2] = target: T2, pTDP-43 aggregates in FTLD-TDP brain sections (Homo sapiens, UniProt Q13148); assay: Micro-autoradiography staining in brain sections from patients with FTD; assay type: binding; settings: 60 nM radioligand, frontal cortex brain sections from FTLD-TDP donors
# T2 construct: from tissue; host or cells: frozen post-mortem human brain sections from FTLD-TDP donors
# T2 sequence (Q13148 whole entry): as above
# Procedure: All tissues were collected from donors for or from whom a written informed consent for a brain autopsy and the use of the material and clinical information for research purposes had been obtained by the respective brain banks. All samples were anonymized and coded. Frozen brain tissue blocks with confirmed TDP-43 pathology upon autopsy were processed using a cryotome to generate sections of 10 μm in thickness and mounted on glass slides. Sections were kept at −80° C. until use.
# Brain sections were immunostained using a commercially available antibody, specific for phosphorylated serine at amino acid 409/410 (anti-pTDP-43 pS409/410, Cosmobio, TIP-PTD-P02). Sections were fixed for 15 minutes at 4° C. with 4% formaldehyde (Sigma, 252549) and washed three times for five minutes with 1×PBS (Dulbecco's phosphate buffered saline, Sigma D1408) at room temperature. Next, sections were saturated and permeabilized in blocking buffer (PBS, 10% normal goat serum (NGS), 0.25% Triton X-100) for one hour at room temperature and incubated overnight at 4° C. with primary antibody against pTDP-43 (diluted at 1/250 in PBS, 5% NGS, 0.25% Triton X-100). The following day, sections were washed three times for five minutes with 1×PBS before incubation with a secondary, AlexaFluor647-labeled goat-anti-rabbit antibody (Abcam, ab150079, diluted at 1/500 in PBS) for 45 minutes at room temperature. […]
# [3] = target: T3, recombinant flag-tagged TDP-43 aggregates (Homo sapiens, UniProt Q13148); assay: Kd determination on recombinant TDP-43 aggregates with filter-binding assay
# T3 construct: FLAG
# T3 sequence (Q13148 whole entry): as above
# Procedure: The TDP-43 aggregation protocol (Shimonaka et al., 2016) was implemented to generate TDP-43 aggregates. The protein preparation of high purity without any degradation was used for the aggregation procedure.
# 2.1 Kd Determination on Recombinant TDP-43 Aggregates with Filter-Binding Assay of [^3H]-Compound 1
# Recombinant flag-tagged TDP-43 aggregates (1.3 μM) were incubated in the presence of [^3H]-Compound 1 with increasing concentrations of radioligand from 0 to 150 nM in a total reaction volume of 100 μL, for two hours at room temperature. 45 μL of sample (corresponding to each concentration) in duplicate was filtered under vacuum on a UniFilter-96 GF/C plate. The filters were washed 5 times with ice-cold buffer (50 mM Tris pH 7.4) and then dried overnight. 30 μL scintillation liquid was added in each well for 30 minutes before quantifying the signal on a Microbeta Trilux device (Perkin Elmer). The non-specific signal was determined with an excess of unlabeled Compound 1 (10 μM) and the specific binding was calculated by subtracting the non-specific signal from the total signal.
# [4] = radioligand [3H]-Compound 16 (40 nM)
# [5] = radioligand [3H]-Compound 52 (75 nM)
SMILES,"Human brain derived TDP-43 aggregates Mean % competition at 250 nM [1, 4]","Human brain derived TDP-43 aggregates Mean % competition at 2 μM [1, 4]","Human brain derived TDP-43 aggregates Mean % competition at 250 nM [1, 5]","Human brain derived TDP-43 aggregates Mean % competition at 2 μM [1, 5]","Ki [1, 5] [nM]",also measured
N#Cc1c(N)cccc1N1CCc2nc(-c3cnc(N4CC[C@H](F)C4)cn3)sc2C1=O [Example 41],47.2^c %,67.7^c %,,,,
Nc1cc(N2CCc3nc(-c4cnc(N5CCCC5)nc4)sc3C2=O)ccc1F [Example 42],,,43.8ª %,79.6ª %,,
Nc1ccc(N2CCc3nc(-c4cnc(N5CCCC5)nc4)sc3C2=O)cc1F [Example 43],,,45.0ª %,69.4ª %,,
Cn1cc(N2CCc3nc(-c4cnc(N5CCC[C@H](F)C5)nc4)sc3C2=O)cn1 [Example 45],,,47.0ª %,64.3ª %,,
Nc1cc(N2CCc3nc(-c4cnc(N5CC[C@@H](F)C5)nc4)sc3C2=O)ccc1F [Example 46],,,62.5ª %,85.9ª %,93,
Nc1cccc(N2CCc3nc(-c4cnc(N5CC[C@H](F)C5)nc4)sc3C2=O)c1F [Example 47],,,50.2ª %,81.7ª %,152,
Nc1cccc(N2CCc3nc(-c4cnc(N5CCC[C@H](F)C5)nc4)sc3C2=O)c1F [Example 48],,,46.9ª %,77.9ª %,73.6,
Nc1cc(N2CCc3nc(-c4cnc(N5CCC(F)CC5)nc4)sc3C2=O)ccc1F [Example 49],63.1^c %,65.5^c %,,,,"Ki [1, 4]: 117 nM"
Nc1cccc(N2CCc3nc(-c4cnc(N5CCC[C@@H](F)C5)nc4)sc3C2=O)c1F [Example 50],52.8^c %,63.4^c %,,,,
"Cn1cc(N2CCc3nc(-c4ccc(N5CC[C@@H](F)C5)nc4)sc3C2=O)cn1 [[^3H]-Compound 1, (R)-2-(6-(3-fluoropyrrolidin-1-yl)pyridin-3-yl)-5-(1-methyl-1H-pyrazol-4-yl)-6,7-dihydrothiazolo[5,4-c]pyridin-4(5H)-one]",,,,,,"micro-autoradiography signal (silver grains) co-localization with pTDP-43 antibody staining [2]: Accumulation of silver grains on pTDP-43 aggregates; also recorded: showed co-localization with pTDP-43 aggregates; Kd ([3]; data from three independent experiments, read-out: average Kd): 18.4 ± 4 nM; Kd ([3]; filter-binding assay, tritiated radioligand 0 to 150 nM, one-site specific binding model (FIG. 1), read-out: Kd value on recombinant flag-tagged TDP-43 aggregates): 15 nM; specific binding to recombinant TDP-43 aggregates ([3]; filter-binding assay, non-specific signal subtracted): high specific binding"
